Measured values from ChEMBL document CHEMBL3611985, “Synthesis and structure-activity relationships of novel 9-oxime acylides with improved bactericidal activity” (2015).
In brackets after ≈: the same amount, converted by molar mass.

Tests used:
Type in all cases: functional
Streptococcus pyogenes [1] = experiment: Antimicrobial activity against Streptococcus pyogenes 12-207 expressing mef incubated for 20 to 24 hrs by two-fold microbroth dilution method
Staphylococcus aureus [2] = experiment: Ratio of MBC to MIC against methicillin-resistant Staphylococcus aureus PU20 expressing constitutive ermC
Haemophilus influenzae [3] = experiment: Antimicrobial activity against azithromycin-susceptible and ampicillin-resistant Haemophilus influenzae 11P037 incubated for 20 to 24 hrs by two-fold microbroth dilution method
Streptococcus pyogenes [4] = experiment: Ratio of MBC to MIC against Streptococcus pyogenes 01-968 expressing inducible ermA
Haemophilus influenzae [5] = experiment: Ratio of MBC to MIC against azithromycin-susceptible and ampicillin-resistant Haemophilus influenzae 11P037
Staphylococcus aureus [6] = experiment: Antimicrobial activity against methicillin-resistant Staphylococcus aureus PU32 expressing inducible ermA incubated for 20 hrs by two-fold microbroth dilution method; conditions: PU32, 20 h
Staphylococcus aureus [7] = experiment: Bactericidal activity against methicillin-resistant Staphylococcus aureus PU32 expressing inducible ermA incubated for 20 hrs followed by sub-culturing for 24 hrs in absence of compound
Staphylococcus aureus [8] = experiment: Bactericidal activity against methicillin-resistant Staphylococcus aureus PU20 expressing constitutive ermC incubated for 20 hrs followed by sub-culturing for 24 hrs in absence of compound
Streptococcus pneumoniae [9] = experiment: Antimicrobial activity against erythromycin-susceptible Streptococcus pneumoniae ATCC 49619 incubated for 20 to 24 hrs by two-fold microbroth dilution method
Streptococcus pyogenes [10] = experiment: Bactericidal activity against Streptococcus pyogenes 12-207 expressing mef incubated for 20 to 24 hrs followed by sub-culturing for 24 hrs in absence of compound
Streptococcus pyogenes [11] = experiment: Bactericidal activity against Streptococcus pyogenes 01-968 expressing inducible ermA incubated for 20 to 24 hrs followed by sub-culturing for 24 hrs in absence of compound
Moraxella catarrhalis [12] = experiment: Bactericidal activity against erythromycin-susceptible Moraxella catarrhalis 11B366 incubated for 20 hrs followed by sub-culturing for 24 hrs in absence of compound
Streptococcus pneumoniae [13] = experiment: Antimicrobial activity against penicillin-susceptible Streptococcus pneumoniae PU09 incubated for 20 to 24 hrs by two-fold microbroth dilution method
Streptococcus pneumoniae [14] = experiment: Ratio of MBC to MIC against penicillin-susceptible Streptococcus pneumoniae PU09
Streptococcus pneumoniae [15] = experiment: Ratio of MBC to MIC against erythromycin-susceptible Streptococcus pneumoniae ATCC 49619
Haemophilus influenzae [16] = experiment: Bactericidal activity against azithromycin-susceptible and ampicillin-resistant Haemophilus influenzae 11P037 incubated for 20 to 24 hrs followed by sub-culturing for 24 hrs in absence of compound
Moraxella catarrhalis [17] = experiment: Antimicrobial activity against erythromycin-susceptible Moraxella catarrhalis 11B366 incubated for 20 hrs by two-fold microbroth dilution method; conditions: 11B366, 20 h
Staphylococcus aureus [18] = experiment: Ratio of MBC to MIC against methicillin-resistant Staphylococcus aureus PU32 expressing inducible ermA
Streptococcus pyogenes [19] = experiment: Antimicrobial activity against Streptococcus pyogenes 01-968 expressing inducible ermA incubated for 20 to 24 hrs by two-fold microbroth dilution method
Staphylococcus aureus [20] = experiment: Antimicrobial activity against methicillin-resistant Staphylococcus aureus PU20 expressing constitutive ermC incubated for 20 hrs by two-fold microbroth dilution method; conditions: PU20, 20 h
Moraxella catarrhalis [21] = experiment: Ratio of MBC to MIC against erythromycin-susceptible Moraxella catarrhalis 11B366
Streptococcus pneumoniae [22] = experiment: Bactericidal activity against penicillin-susceptible Streptococcus pneumoniae PU09 incubated for 20 to 24 hrs followed by sub-culturing for 24 hrs in absence of compound
Streptococcus pyogenes [23] = experiment: Ratio of MBC to MIC against Streptococcus pyogenes 12-207 expressing mef
Streptococcus pneumoniae [24] = experiment: Bactericidal activity against erythromycin-susceptible Streptococcus pneumoniae ATCC 49619 incubated for 20 to 24 hrs followed by sub-culturing for 24 hrs in absence of compound

| SMILES | MIC (Streptococcus pyogenes [1]) | Ratio (Staphylococcus aureus [2]) | MIC (Haemophilus influenzae [3]) | Ratio (Streptococcus pyogenes [4]) | Ratio (Haemophilus influenzae [5]) | MIC (Staphylococcus aureus [6]) | MBC (Staphylococcus aureus [7]) | MBC (Staphylococcus aureus [8]) | MIC (Streptococcus pneumoniae [9]) | MBC (Streptococcus pyogenes [10]) | MBC (Streptococcus pyogenes [11]) | MBC (Moraxella catarrhalis [12]) | MIC (Streptococcus pneumoniae [13]) | Ratio (Streptococcus pneumoniae [14]) | Ratio (Streptococcus pneumoniae [15]) | MBC (Haemophilus influenzae [16]) | MIC (Moraxella catarrhalis [17]) | Ratio (Staphylococcus aureus [18]) | MIC (Streptococcus pyogenes [19]) | MIC (Staphylococcus aureus [20]) | other results |
| --- | --- | --- | --- | --- | --- | --- | --- | --- | --- | --- | --- | --- | --- | --- | --- | --- | --- | --- | --- | --- | --- |
| CC[C@H]1OC(=O)[C@H](C)C(=O)[C@H](C)[C@@H](O[C@@H]2O[C@H](C)C[C@H](N(C)C)[C@H]2O)[C@](C)(OC)C[C@@H](C)/C(=N\OC/C=C/c2cnc3ccccc3c2)[C@H](C)[C@H]2OC(=O)O[C@@]21C | 0.016 µg/mL (≈ 0.0201 µM) | 1 | 8 µg/mL (≈ 10.1 µM) | >8 | >8 | 1 µg/mL (≈ 1.26 µM) | > 8 µg/mL | 32 µg/mL (≈ 40.2 µM) | ≤ 0.008 µg/mL | > 0.125 µg/mL | > 0.5 µg/mL | 2 µg/mL (≈ 2.51 µM) | 0.25 µg/mL (≈ 0.314 µM) | 2 | >=4 | > 64 µg/mL | 2 µg/mL (≈ 2.51 µM) | >8 | 0.062 µg/mL (≈ 0.0779 µM) | 32 µg/mL (≈ 40.2 µM) | Ratio (Moraxella catarrhalis [21]): 1; MBC (Streptococcus pneumoniae [22]): 0.5 µg/mL (≈ 0.628 µM); Ratio (Streptococcus pyogenes [23]): >8; MBC (Streptococcus pneumoniae [24]): 0.031 µg/mL (≈ 0.0389 µM) |
| CC[C@H]1OC(=O)[C@H](C)[C@@H](OC(=O)Cc2ccccn2)[C@H](C)[C@@H](O[C@@H]2O[C@H](C)C[C@H](N(C)C)[C@H]2O)[C@](C)(OC)C[C@@H](C)/C(=N\OCC#Cc2cncc(N)c2)[C@H](C)[C@H]2OC(=O)O[C@@]21C | 0.125 µg/mL (≈ 0.142 µM) | 2 | 8 µg/mL (≈ 9.09 µM) | 4 | >8 | 0.5 µg/mL (≈ 0.568 µM) | > 4 µg/mL | 256 µg/mL (≈ 291 µM) | ≤ 0.008 µg/mL | > 1 µg/mL | 0.5 µg/mL (≈ 0.568 µM) | 2 µg/mL (≈ 2.27 µM) | 0.5 µg/mL (≈ 0.568 µM) | 2 | >=1 | > 64 µg/mL | 1 µg/mL (≈ 1.14 µM) | >8 | 0.125 µg/mL (≈ 0.142 µM) | 128 µg/mL (≈ 145 µM) | Ratio (Moraxella catarrhalis [21]): 2; MBC (Streptococcus pneumoniae [22]): 1 µg/mL (≈ 1.14 µM); Ratio (Streptococcus pyogenes [23]): >8; MBC (Streptococcus pneumoniae [24]): 0.008 µg/mL (≈ 0.00909 µM) |
